Reference: patent publication US7097977B1, “Target of anticancer agent” (priority 2000, dated 2006)

Test system: rad51c, rad51d, xrcc2 and xrcc3 mutant DT40 cells
Assay: colony survival assay on methyl cellulose containing cisplatin
Format: cell-based, avian
Settings: continuous cisplatin in methyl cellulose plate; each mutant vs normal cells
Experimental: Further, the cells were plated on a plate of methyl cellulose containing cisplatin (manufactured by NIPPON KAYAKU CO., LTD.), and cultured in an atmosphere of 5% CO2 and 20% O2, at humidity of 100%, and 39° C. Thereafter, the colony survival assay was carried out, thereby evaluating sensitivity of the cells to cisplatin.
However, as shown in the panel (B) of FIG. 3, each mutant was about 8-fold more sensitive than normal cells to killing by cisplatin (cis-diamminedichloroplatinum-II), a DNA cross-linking agent that has been widely used in chemotherapy. The complementation of these mutants with human cDNAs corresponding to mutant genes in these mutants restored their cisplatin sensitivity to nearly normal levels.

`N.N.[Cl][Pt][Cl]` [cisplatin, cis-diamminedichloroplatinum-II] was tested, and the “sensitivity of each mutant to killing relative to normal cells” value was “about 8 fold”.
